The values that follow are results of earlier work, collected in patent US20240299501A1, “COMPOSITION AND METHODS OF TREATMENT USING TRANSDERMAL HORMONE SUPPLEMENTATION” (Xygenyx Inc., priority 2023, published 2024).

Some results are limits rather than exact numbers.

For series [1] the following is noted: single penetration enhancer.
Series [2] concerns wide dynamic range neurons in the ventroposterolateral nucleus of the thalamus. Particulars: stated as 'is believed'.
The conditions of series [3]: in the human body.

Consider `CC(C)[C@@H]1CC[C@@H](C)C[C@H]1O` [Menthol], for which the “increase of drug uptake via the transdermal route (factor)” value in series [1] was not below 10. Take `CCCCCc1cc(O)c2c(c1)OC(C)(C)C1CCC(C)=CC21` (stereo not shown) [THC, Δ-9-tetrahydrocannabinol]: the “potency relative to morphine in mediating pain” value in series [2] is listed as “ten times more powerful than morphine”. Take `CC12CCC(CC1)C(C)(C)O2` [eucalyptol, 1,8-epoxy-p-menthane]: in series [1], the “increase of drug uptake via the transdermal route (factor)” value was “more than 10”. “HGH: hormone comprising a peptide chain that is synthesized in the pituitary gland”: the biological half-life in series [3] is listed as 10-20 minutes.
